The structures appear in SMILES notation. pIC50: −log10 of the molar value.

For data set [1], the target named is D-amino-acid oxidase (Homo sapiens, UniProt P14920). The experiment in a line: Inhibition of human recombinant DAAO expressed in HEK293 cells using D-serine as substrate after 20 mins by horseradish peroxidase-coupled assay.
Data set [2] has as its target D-amino-acid oxidase (Sus scrofa, UniProt P00371). In words: Inhibition of pig DAAO using D-serine as substrate after 20 mins by horseradish peroxidase-coupled assay.
Data set [3] in a line: Metabolic stability in mouse liver microsomes assessed as compound remaining at 5 uM after 1 hr by LC/MS/MS analysis. The settings on record: read-out: Stability. It is filed as ADME, Microsome. Background: Liver microsomes are a subcellular fraction often used to study metabolism.
The subject of data set [4] is Liver. The experiment in a line: Metabolic stability in mouse liver microsomes assessed as compound remaining at 5 uM after 1 hr by LC/MS/MS analysis in presence of UDPGA. It is filed as ADME, Microsome.
Data set [5] deals with Mus musculus. The experiment in a line: Pharmaco-enhancing activity in CD1 mouse assessed as increase in D-serine level in plasma at 30 mg/kg, po relative to control. On the set-up: dose 30 mg/kg, route oral. In kind it is ADME, organism-based. The settings on record: in vivo.
In data set [6] the test system is Liver. The experiment in a line: (§1) Metabolic stability in mouse liver microsomes assessed as compound remaining at 5 uM after 1 hr by LC/MS/MS analysis in presence of NADPH. In kind it is ADME, Microsome. The settings on record: microsomes, 1 h, 5 µM.
The subject of a further data set is Plasma. In words: (§2) Metabolic stability in mouse plasma assessed as compound remaining at 5 uM after 1 hr by LC/MS/MS analysis. It is filed as ADME, cell-free. To be noted: 1 h, 5 µM.
Data set [7] relates to Mus musculus. The experiment in a line: Pharmaco-enhancing activity in CD1 mouse assessed as increase in D-serine level in plasma at 30 mg/kg, po measured up to 2 hrs relative to control. It is filed as ADME, organism-based. Further details: dose 30 mg/kg, route oral; call rule not given here. The settings on record: in vivo.
Data set [8] is described as follows: as §1. To be noted: liver microsomes, read-out: Stability. It is filed as ADME, Microsome.
Data set [9] in a line: as §2. In kind it is ADME, cell-free. The settings on record: read-out: Stability.
The test system of data set [10] is Mus musculus. The experiment in a line: Pharmaco-enhancing activity in CD1 mouse assessed as increase in D-serine level in plasma at 30 mg/kg, po measured at 30 mins relative to control. To be noted: in vivo, 0.5 h. It is filed as ADME, organism-based. On the set-up: dose 30 mg/kg, route oral.

Chain of D-amino-acid oxidase (Sus scrofa, UniProt P00371) (P00371 whole entry): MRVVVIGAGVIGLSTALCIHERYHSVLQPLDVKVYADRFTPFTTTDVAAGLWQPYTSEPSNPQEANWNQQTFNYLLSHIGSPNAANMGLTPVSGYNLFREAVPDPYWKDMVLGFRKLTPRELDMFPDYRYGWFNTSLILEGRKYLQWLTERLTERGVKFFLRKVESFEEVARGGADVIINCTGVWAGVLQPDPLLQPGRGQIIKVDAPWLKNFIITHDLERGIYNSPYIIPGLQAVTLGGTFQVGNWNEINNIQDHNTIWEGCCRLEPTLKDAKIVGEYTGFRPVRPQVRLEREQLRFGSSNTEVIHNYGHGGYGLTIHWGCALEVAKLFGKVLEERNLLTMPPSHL
Chain of D-amino-acid oxidase (Homo sapiens, UniProt P14920) (P14920 whole entry): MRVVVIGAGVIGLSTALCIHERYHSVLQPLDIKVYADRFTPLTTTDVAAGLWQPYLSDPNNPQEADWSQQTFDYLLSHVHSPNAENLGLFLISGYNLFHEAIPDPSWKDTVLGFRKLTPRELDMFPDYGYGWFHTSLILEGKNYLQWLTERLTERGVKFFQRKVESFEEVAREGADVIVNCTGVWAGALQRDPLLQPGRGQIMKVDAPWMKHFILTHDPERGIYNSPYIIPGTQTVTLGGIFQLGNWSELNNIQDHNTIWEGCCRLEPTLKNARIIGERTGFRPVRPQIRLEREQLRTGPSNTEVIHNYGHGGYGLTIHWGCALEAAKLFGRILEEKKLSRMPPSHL

Usually pIC50 stands for −log10 of the IC50, conventionally taken in molar units. Regarding `O=c1[nH]c2cccnc2n1O`, the pIC50 at D-amino-acid oxidase [1] was 4.52.
Still for that read-out and setting: under `Oc1nc2ccccc2[nH]1` stands below 4.00; under `Nn1c(=O)[nH]c2ccccc21`, below 4.00; under `COn1c(=O)[nH]c2ccccc21`, below 4.00.
On to `Cn1c(=O)n(O)c2ccccc21`, for which, on D-amino-acid oxidase [1], the pIC50 is below 4.00.
Still for that read-out and setting: as for `O=C1Nc2ccccc2C1O` (stereo unspecified), the figure is below 4.00; as for `O=c1[nH]c2ncccc2n1O`, 6.00.
Still for that read-out and setting: under `O=c1[nH]c2ccncc2n1O` stands 4.15.
Consider `O=c1[nH]c2ccccc2n1O`, for which the figures for the pIC50 on D-amino-acid oxidase [2] and on D-amino-acid oxidase [1] were 6.00 and 6.22, respectively.
In the same order, the values of `O=c1[nH]c2c(F)cccc2n1O` are 6.30 and 7.00.
In the case of `Cc1cccc2c1[nH]c(=O)n2O`, the pIC50 at D-amino-acid oxidase [2] was 6.40; on D-amino-acid oxidase [1], 6.70.
In the same order, the values of `CCc1cccc2c1[nH]c(=O)n2O` are 4.70 and 4.10.
As to `COc1cccc2c1[nH]c(=O)n2O`, the remaining at 1 h, 5 µM in data set [3] is 100%. Further, the Stability entry with Liver [4] was “Unstable”; with Liver [6] it was 60%; with Plasma it was 90%. Besides, in the data set with Mus musculus [5], the Activity result is recorded as “Not Active”. Further, the pIC50 against D-amino-acid oxidase [2] was 6.40; on D-amino-acid oxidase [1], 7.00.
`O=c1[nH]c2c(Cc3ccccc3)cccc2n1O`: the pIC50 on D-amino-acid oxidase [2] is 4.30; at D-amino-acid oxidase [1], 5.00.
`CCOc1cccc2c1[nH]c(=O)n2O`: the pIC50 on D-amino-acid oxidase [2] and at D-amino-acid oxidase [1] was 4.30 each time.
As for `CC(C)c1cccc2c1[nH]c(=O)n2O`, the values for the pIC50 against D-amino-acid oxidase [2] and at D-amino-acid oxidase [1] were 5.00 and 4.70, respectively.
In the same order, the values of `CCCc1cccc2c1[nH]c(=O)n2O` are 4.52 and 4.70.
With `CCC(C)c1cccc2c1[nH]c(=O)n2O` (stereo unspecified), the results for the pIC50 at D-amino-acid oxidase [2] and at D-amino-acid oxidase [1] were 4.40 and below 4.00, respectively.
In the same order, the values of `Cc1ccc2c([nH]c(=O)n2O)c1C` are 6.00 and 4.70.
In the same order, the values of `Cc1c(F)ccc2c1[nH]c(=O)n2O` are 6.15 and 7.15.
On to `O=c1[nH]c2c3c(ccc2n1O)CCO3`, for which the pIC50 against D-amino-acid oxidase [2] is 6.70; at D-amino-acid oxidase [1] it was 6.10.
Taken in the same sequence, the figures for `Cc1cc(C)c2[nH]c(=O)n(O)c2c1` were 5.40 and 4.70.
`O=c1[nH]c2c(F)cc(F)cc2n1O`: the remaining at 1 h, 5 µM in data set [3], in [8] and in data set [9] was 100% throughout. In addition, the Stability in the data set on Liver [4] was 0.6%. Further, the outcome with Mus musculus [7] and with Mus musculus [10] was Active. Moreover, the figures for the pIC50 against D-amino-acid oxidase [2] and at D-amino-acid oxidase [1] were 6.40 and 7.10, respectively.
As for `O=c1[nH]c2cc(F)ccc2n1O`, the pIC50 at D-amino-acid oxidase [2] was 6.00; at D-amino-acid oxidase [1], 6.05.
On to `Cc1ccc2c(c1)[nH]c(=O)n2O`, for which the pIC50 against D-amino-acid oxidase [2] and at D-amino-acid oxidase [1] was 5.40 in each case.
For the compound `O=c1[nH]c2cc(F)c(F)cc2n1O`, the figures for the pIC50 at D-amino-acid oxidase [2] and on D-amino-acid oxidase [1] were 4.52 and 4.15, respectively.
As to `Cc1cc2[nH]c(=O)n(O)c2cc1F`, the pIC50 at D-amino-acid oxidase [2] is 6.00; at D-amino-acid oxidase [1], 5.70.
As for `O=c1[nH]c2cc3c(cc2n1O)CCC3`, the results for the pIC50 on D-amino-acid oxidase [2] and at D-amino-acid oxidase [1] were 5.00 and 4.52, respectively.
In the same order, the values of `O=c1[nH]c2ccc(F)cc2n1O` are 6.22 and 6.40.
Take `O=c1[nH]c2ccc(Cl)cc2n1O`: the pIC50 is 5.70 at D-amino-acid oxidase [2] and 5.05 at D-amino-acid oxidase [1].
Consider `Cc1ccc2[nH]c(=O)n(O)c2c1`, for which the results for the pIC50 against D-amino-acid oxidase [2] and on D-amino-acid oxidase [1] were 5.15 and 4.52, respectively.
For `O=c1[nH]c2ccc(F)c(F)c2n1O`, the pIC50 on D-amino-acid oxidase [2] is 4.70; at D-amino-acid oxidase [1], 5.10.
`O=c1[nH]c2ccc3c(c2n1O)CCC3`: the pIC50 on D-amino-acid oxidase [2] and on D-amino-acid oxidase [1] was below 4.00 each time.
In the case of `Cc1c(F)ccc2[nH]c(=O)n(O)c12`, the pIC50 against D-amino-acid oxidase [2] and at D-amino-acid oxidase [1] was below 4.00 each time.
Regarding `O=c1[nH]c2cccc(F)c2n1O`, the pIC50 against D-amino-acid oxidase [2] was 4.70; at D-amino-acid oxidase [1] it was 5.52.
`Cc1cccc2[nH]c(=O)n(O)c12`: the pIC50 at D-amino-acid oxidase [2] is below 4.00; at D-amino-acid oxidase [1] it was 4.40.
With `O=C1Cc2ccccc2N1O`, the pIC50 at D-amino-acid oxidase [1] is below 4.00.

For the origin of these results see ChEMBL document CHEMBL2150982, “Synthesis and SAR of 1-hydroxy-1H-benzo[d]imidazol-2(3H)-ones as Inhibitors of D-Amino Acid Oxidase” (ACS Med Chem Lett, 2012).
